Usually IC50 stands for the point on the concentration scale where inhibition reaches its midpoint.

The target of the first assay is HCV NS3/4A protease complex, BMS strain (UniProt P27958, C1454S/C1711G, species not given/STRAIN_BMS). Nature of the assay: Recombinant HCV NS3/4A protease complex FRET peptide assay (BMS strain). It is filed as biochemical, HCV genotype 1a. The following applies: NS3/4A BMS strain; read-out: IC50 range. The source says:
Recombinant HCV NS3/4A Protease Complex FRET Peptide Assay
The purpose of this in vitro assay was to measure the inhibition of HCV NS3 protease complexes, derived from the BMS, H77C or J416S strains, as described below, by compounds of the present invention.
Serum from an HCV-infected patient was obtained from Dr. T. Wright, San Francisco Hospital. An engineered full-length cDNA (compliment deoxyribonucleic acid) template of the HCV genome (BMS strain) was constructed from DNA fragments obtained by reverse transcription-PCR(RT-PCR) of serum RNA (ribonucleic acid) and using primers selected on the basis of homology between other genotype 1a strains.
The BMS, H77C and J4L6S strains were used for production of recombinant NS3/4A protease complexes. […] Briefly, a three-lysine solubilizing tail was added at the 3′-end of the NS4A coding region. […] Briefly, NS3/4A expression was induced with 0.5 mM Isopropyl β-D-1-thiogalactopyranoside (IPTG) for 22 hr at 20° C. […] The crude protein extract was loaded on a Nickel—Nitrilotriacetic acid (Ni-NTA) column pre-equilibrated with buffer B (25 mM HEPES, pH8.0, 20% glycerol, 500 mM NaCl, 0.5% Triton-X100, 15 mM imidazole, 5 mM βME). The sample was loaded at a flow rate of 1 mL/min. The column was washed with 15 column volumes of buffer C (same as buffer B except with 0.2% Triton-X100). The protein was eluted with 5 column volumes of buffer D (same as buffer C except with 200 mM Imidazole).
NS3/4A protease complex-containing fractions were pooled and loaded on a desalting column Superdex-S200 pre-equilibrated with buffer D (25 mM HEPES, pH7.5, 20% glycerol, 300 mM NaCl, 0.2% Triton-X100, 10 mM βME). Sample was loaded at a flow rate of 1 mL/min. NS3/4A protease complex-containing fractions were pooled and concentrated to approximately 0.5 mg/ml.
The enzyme was stored at −80° C., thawed on ice and diluted prior to use in assay buffer. […] The sequence of this peptide is loosely based on the NS4A/NS4B natural cleavage site except there is an ester linkage rather than an amide bond at the cleavage site. The peptide substrate was incubated with one of the three recombinant NS3/4A complexes, in the absence or presence of a compound of the present invention, and the formation of fluorescent reaction product was followed in real time using a Cytofluor Series 4000.
The reagents were as follow: HEPES and Glycerol (Ultrapure) were obtained from GIBCO-BRL. Dimethyl Sulfoxide (DMSO) was obtained from Sigma. β-Mercaptoethanol was obtained from Bio Rad.
Substrate: 2 μM final concentration (from a 2 mM stock solution in DMSO stored at −20° C.). HCV NS3/4A type 1a (1b), 2-3 nM final concentration (from a 5 μM stock solution in 25 mM HEPES, pH7.5, 20% glycerol, 300 mM NaCl, 0.2% Triton-X100, 10 mM βME).
The assay was performed in a 96-well polystyrene black plate from Falcon. Each well contained 25 μl NS3/4A protease complex in assay buffer, 50 μof a compound of the present invention in 10% DMSO/assay buffer and 25 μl substrate in assay buffer. A control (no compound) was also prepared on the same assay plate. The enzyme complex was mixed with compound or control solution for 1 min before initiating the enzymatic reaction by the addition of substrate. The assay plate was read immediately using the Cytofluor Series 4000 (Perspective Biosystems). The instrument was set to read an […] at 25° C. Reactions were generally followed for approximately 15 minutes.
The percent inhibition was calculated with the following equation: 100−[(δFinh/δFcon)×100] where δF is the change in fluorescence over the linear range of the curve.
For `C=CC1C[C@]1(NC(=O)[C@@H]1C[C@@H](Oc2nc(Cl)c(OC)c3ccccc23)CN1C(=O)[C@@H](NC(=O)OC(C)(C)C)C(C)(C)C)C(=O)NS(=O)(=O)C1CC1` (stereo partly drawn) [Compound 245, BOCNH-P3(L-t-BuGly)-P2[(4R)-(3-chloro-4-methoxyisoquinoline-1-oxo)-S-proline]-P1(1R,2S VinylAcca)-CONHSO2Cyclopropane], the IC50 lay within 0.1 to 1 µM.

As for `C=CC1CC1(NC(=O)[C@@H]1C[C@@H](Oc2ccnc(N3Cc4ccccc4C3)n2)CN1C(=O)[C@@H](NC(=O)OC)C(C)(C)C)C(=O)NS(=O)(=O)C1CC1` (some centres unmarked) [Compound 342], the IC50 was 1 to 10 µM.

Consider `C=CC1C[C@]1(NC(=O)[C@@H]1C[C@@H](COc2cccc(-c3ccsc3)n2)CN1C(=O)[C@@H](NC(=O)OC)C(C)(C)C)C(=O)NS(=O)(=O)C1CC1` (some centres unmarked) [Compound 353], for which the IC50 lay within 10 to 100 µM.

Consider `C=C[C@@H]1C[C@]1(NC(=O)[C@@H]1C[C@@H](Oc2nccc3c(O)cccc23)CN1C(=O)[C@@H](NC(=O)OC(C)(C)C)C(C)(C)C)C(=O)NS(=O)(=O)C1CC1` [Compound 256], for which the IC50 fell in the range of 10 to 100 µM.

In the case of `C=C[C@@H]1C[C@]1(NC(=O)C1C[C@@H](Oc2nc(C3CC3)nc3cc(OC)c(OC)cc23)CN1C(=O)[C@@H](N)C(C)(C)C)C(=O)NS(=O)(=O)C1CC1` (some centres unmarked) [Compound 49], the IC50 fell in the range of 1 to 10 µM.

For `C=CC1CC1(NC(=O)[C@@H]1C[C@@H](Oc2ccnc(N3CCc4ccccc4C3)n2)CN1C(=O)[C@@H](NC(=O)OC)C(C)(C)C)C(=O)NS(=O)(=O)C1CC1` (some centres unmarked) [Compound 341], the IC50 was 1 to 10 µM.

As to `C=CC1C[C@]1(NC(=O)[C@@H]1C[C@@H](COc2ccnc(Br)c2)CN1C(=O)[C@@H](NC(=O)OC)C(C)(C)C)C(=O)NS(=O)(=O)C1CC1` (some centres unmarked) [Compound 348], the IC50 lay in the range of 10 to 100 µM.

On to `C=CC1C[C@]1(NC(=O)[C@@H]1C[C@@H](COc2cccc(Br)n2)CN1C(=O)[C@@H](NC(=O)OC)C(C)(C)C)C(=O)NS(=O)(=O)C1CC1` (some centres unmarked) [Compound 352], for which the IC50 lay within 10 to 100 µM.

`C=CC1CC1(NC(=O)[C@@H]1C[C@@H](Oc2ccnc(N3CCOCC3)n2)CN1C(=O)[C@@H](NC(=O)OC)C(C)(C)C)C(=O)NS(=O)(=O)C1CC1` (some centres unmarked) [Compound 343]: the IC50 fell in the range of 1 to 10 µM.

As for `C=CC1C[C@]1(NC(=O)[C@@H]1C[C@@H](Oc2nc(-c3cnc(N(C)C)s3)cc3cc(OC)ccc23)CN1C(=O)[C@@H](NC(=O)OC(C)(C)C)C(C)(C)C)C(=O)NS(=O)(=O)C1CC1` (some centres unmarked) [Compound 331], the half-inhibitory concentration (IC50) was less than 0.1 µM.

As to `C=CC1C[C@]1(NC(=O)[C@@H]1C[C@@H](COc2ccnc3ccccc23)CN1C(=O)[C@@H](NC(=O)OC)C(C)(C)C)C(=O)NS(=O)(=O)C1CC1` (some centres unmarked) [Compound 344], the IC50 fell in the range of 0.1 to 1 µM.

For the molecule `C=CC1C[C@]1(NC(=O)[C@@H]1C[C@@H](COc2ccnc(-c3ccoc3)c2)CN1C(=O)[C@@H](NC(=O)OC)C(C)(C)C)C(=O)NS(=O)(=O)C1CC1` (some centres unmarked) [Compound 351], the IC50 lay in the range of 1 to 10 µM.

In the case of `C=CC1CC1(NC(=O)[C@@H]1C[C@@H](Sc2ccc3ccccc3c2)CN1C(=O)[C@@H](NC(=O)OC(C)(C)C)C(C)(C)C)C(=O)NS(C)(=O)=O` (some centres unmarked) [Compound 452], the concentration for half-maximal inhibition (IC50) fell in the range of 1 to 10 µM.

As to `C=CC1C[C@]1(NC(=O)[C@@H]1C[C@@H](COc2cncc(Br)c2)CN1C(=O)[C@@H](NC(=O)OC)C(C)(C)C)C(=O)NS(=O)(=O)C1CC1` (some centres unmarked) [Compound 346], the half-inhibitory concentration (IC50) was 1 to 10 µM.

In the case of `C=CC1C[C@]1(NC(=O)[C@@H]1C[C@@H](COc2cccc(-c3ccccc3)n2)CN1C(=O)[C@@H](NC(=O)OC)C(C)(C)C)C(=O)NS(=O)(=O)C1CC1` (some centres unmarked) [Compound 354], the IC50 is 1 to 10 µM.

Take `C=CC1CC1(NC(=O)[C@@H]1C[C@@H](Oc2cncc(Br)c2)CN1C(=O)[C@@H](NC(=O)OC(C)(C)C)C(C)(C)C)C(=O)NS(=O)(=O)C1CC1` (some centres unmarked) [Compound 423]: the IC50 is 0.1 to 1 µM.

Regarding `C=C[C@@H]1C[C@]1(NC(=O)[C@@H]1C[C@@H](Oc2cccc3ccccc23)CN1C(=O)[C@@H](NC(=O)OC(C)(C)C)C(C)(C)C)C(=O)NS(C)(=O)=O` [Compound 470], the IC50 is 0.1 to 1 µM.

For `C=CC1CC1(NC(=O)[C@@H]1C[C@@H](Sc2cccc3ccccc23)CN1C(=O)[C@@H](NC(=O)OC(C)(C)C)C(C)(C)C)C(=O)NS(C)(=O)=O` (some centres unmarked) [Compound 451], the IC50 is 1 to 10 µM.

As for `C=CC1C[C@]1(NC(=O)[C@@H]1C[C@@H](COc2ccnc(-c3ccsc3)c2)CN1C(=O)[C@@H](NC(=O)OC)C(C)(C)C)C(=O)NS(=O)(=O)C1CC1` (some centres unmarked) [Compound 349], the IC50 was in the range of 1 to 10 µM.

For `C=CC1C[C@]1(NC(=O)[C@@H]1C[C@@H](Oc2nc(-c3cnccn3)c(OC)c3ccccc23)CN1C(=O)[C@@H](NC(=O)OC(C)(C)C)C(C)(C)C)C(=O)NS(=O)(=O)C1CC1` (stereo partly drawn) [Compound 231, BOCNH-P3(L-t-BuGly)-P2[(4R)-(3-pyrazine-2-yl-4-methoxy -isoquinolin-1-oxo)-S-proline]-P1(1R,2S VinylAcca)-CONHSO2Cyclopropane], the IC50 was 1 to 10 µM.

Consider `C=C[C@@H]1C[C@]1(NC(=O)C1C[C@@H](Oc2nc(C(F)(F)F)nc3cc(OC)c(OC)cc23)CN1C(=O)[C@@H](N)C(C)(C)C)C(=O)NS(=O)(=O)C1CC1` (some centres unmarked) [Compound 52], for which the concentration for half-maximal inhibition (IC50) is 1 to 10 µM.

Regarding `C=C[C@H]1C[C@@]1(NC(=O)[C@@H]1C[C@@H](Oc2cccc3ccccc23)CN1C(=O)[C@@H](NC(=O)OC(C)(C)C)C(C)(C)C)C(=O)NS(C)(=O)=O` [Compound 471], the IC50 is 1 to 10 µM.

Still in this assay, the particulars now being: read-out: IC50 range; NS3/4A BMS strain.
With `C=CC1CC1(NC(=O)C1CC(Oc2nccc3cc(OC)ccc23)CN1C(=O)C(NC)C(C)CC)C(=O)NS(=O)(=O)C1CC1` (centres unmarked) [Compound 99], the IC50 was 1 to 10 µM.

The values above are taken from US7915291B2, “Hepatitis C virus inhibitors” (Bristol-Myers Squibb Company, priority 2002, dated 2011).
